# Experimental data reported in patent publication US7531193B2 (priority 2004, dated 2009).
# “And” between values parts separate entries of the source, which are not always exact repeats. Equal values may be shown once.
# Tested on: human striated muscle cell innervation with spinal cord and spinal ganglion explants from rat embryos
# Format: cell-based, human (muscle cells), rat (embryo explants)
smiles,measurement,value
"C/C=C/C=C\CC/C=C/C(=O)NCC(C)C [Pure spilanthol, spilanthol]",Effect on muscle contractions (conclusion),lead to a blockage of muscle contractions
same,"Frequency of contractions (%), incubation without washout, 5 min",0% and 7%
same,"Frequency of contractions (%), incubation without washout, 1 h",0%
same,"Frequency of contractions (%), incubation without washout, 6 h",0% and 4%
same,"Frequency of contractions (%), recuperation after washout, 1 h",0%
same,Incubation time after which muscle contractions are blocked,5 min
same,Recuperation of contractile activity (conclusion),not observed
same,Time the fibres remain blocked after elimination of the substance,24 h
same,Time until which the blockage is maintained during incubation,6 h
